Data from article PMC10826971, “Evaluating protein cross-linking as a therapeutic strategy to stabilize SOD1 variants in a mouse model of familial ALS” (PLOS Biology, 2024).
“Also recorded” adds a separate entry of the source. Like-named read-outs stand apart in the source and are kept apart here.

Key:
[1] = assay type: in vitro ADME; settings: human; for plasma protein binding assay readout (Fig 6C): 50 uM
From the text: Fig 6 Cross-linking at sub-toxic concentrations within cells. […] Results are shown as percentage of viable cells compared to a vehicle control. Note: cell viability <70% (dotted line) is generally considered as the threshold for cytotoxicity, and viabilities >100% indicate a trophic effect. Controls included EMEM with 0.1% DMSO (dimethyl sulfoxide, negative control) and 500 μm of chlorpromazine (positive control). […] The data underlying this figure can be found in S1 Data. LC-MS/MS, liquid chromatography-tandem mass spectrometry; MS, mass spectrometry; SOD1, superoxide dismutase 1.

[2] = tested on: B6 G93A mice; experiment: Survival study, congenic B6 G93A/YFP mice, S-XL6 50 mg/kg SC on weekdays from day 108; assay type: in vivo, mouse; parameters: Dosed remained: unit not given here
From the text: Two fALS lines were used to assess survival in genetic backgrounds with different disease severity. […] Dose and dose regimen were estimated from the blood PK/PD profile and BBB penetration described above. A subcutaneous (SC) route of administration was chosen because in our hands it results in more precise delivery. […] In both studies, mice were gender and littermate matched and non ALS-related deaths were excluded. We are currently developing the methods necessary for quantifying copy number and cannot rule out reduced SOD1 expression as having contributed to the survival benefit in treated B6 G93A mice.
The first line was derived by crossing (over >10 generations) congenic fALS “B6 G93A mice” (B6.Cg-Tg(SOD1*G93A)1Gur/J, Stock No. 004435, The Jackson Laboratory, Bar Harbor, Maine, USA) with “YFP-16 mice” [50] (B6.Cg-Tg(Thy1-YFP)16Jrs/J, Stock No. 003709, The Jackson Laboratory, Bar Harbor, Maine, USA). This line maintains the C57BL/6J genetic background and expresses YFP in motor and sensory neurons to enable cellular-level molecular profiling in future studies. The second line is the standard “Hybrid B6SJL G93A mice” (B6SJL-Tg(SOD1*G93A)1Gur/J Stock No. 002726, The Jackson Laboratory, Bar Harbor, Maine, USA). Methods for survival studies have been described and followed the conventions for optimal trial design with fALS mice. Mice were tested for difference in: (1) disease onset (at least a 20% decrease in grip strength and open-field motor performance, which we expect to correlate with change in weight); (2) disease end-stage (disease score, e.g., loss of righting reflex); and (3) weight. The hybrid line was additionally tested for differences in forelimb and hindlimb grip strength.

[3] = molecular target: SOD1 (Homo sapiens, UniProt P00441); assay type: binding
Protocol: A computational search was performed in PubChem to identify all compounds containing a cyclic disulfide motif. […] Of these, 69 compounds cross-linked SOD1 with a wide array of reaction rates. Only 2 compounds could cross-link 100% of SOD1 during the assay, including one 5-membered cyclic disulfide (4-Amino-1,2-Dithiolane-4-Carboxylic Acid) and one 6-membered cyclic thiosulfinate (1,2-dithiane 1-oxide).

Sequence of SOD1 (P00441 2-154 limits assumed): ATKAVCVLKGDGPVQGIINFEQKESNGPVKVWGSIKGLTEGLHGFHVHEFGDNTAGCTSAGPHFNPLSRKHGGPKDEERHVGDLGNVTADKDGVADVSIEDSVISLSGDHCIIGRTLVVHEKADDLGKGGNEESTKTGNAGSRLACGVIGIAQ

For `[O-][S+]1CCCCS1` (centres unmarked) [S-XL6, 1,2-dithiane-1-oxide], the “plasma protein binding assay readout (Fig 6C)” value [1] was 79%, the plasma protein binding ([1]; plasma) was “no binding” and the “plasma protein binding assay readout (Fig 6C)” value ([1]; plasma) was 144%. The survival benefit ([2]; 50 mg/kg SC from day 108) was “modest survival benefit; also recorded: modest survival improvement”, the “clinical signs immediately after dosing” value ([2]; SC dosing) was “lethargy and shaking that subsided after 20 min” and the Dosed remained ([2]; day 0) was 100. The Dosed remained ([2]; day 125) was 100, the Dosed remained ([2]; day 125.999) was 100 and the Dosed remained ([2]; day 127.999) was 100. For the same compound, the Dosed remained ([2]; day 128) was 100, the Dosed remained ([2]; day 128.999) was 100 and the Dosed remained ([2]; day 129) was 100. For the same compound, the Dosed remained ([2]; day 129.999) was 100, the Dosed remained ([2]; day 130) was 100 and the Dosed remained ([2]; day 130.999) was 100. For the same compound, the Dosed remained ([2]; day 131) was 100, the Dosed remained ([2]; day 131.999) was 100 and the Dosed remained ([2]; day 132) was 100. For the same compound, the Dosed remained ([2]; day 132.999) was 100, the Dosed remained ([2]; day 133) was 100 and the Dosed remained ([2]; day 133.999) was 100. For the same compound, the Dosed remained ([2]; day 134) was 100, the Dosed remained ([2]; day 134.999) was 100 and the Dosed remained ([2]; day 135) was 100. It also gave a Dosed remained ([2]; day 135.999) of 100, a Dosed remained ([2]; day 136) of 100 and a Dosed remained ([2]; day 136.999) of 100. For the same compound, the Dosed remained ([2]; day 137) was 100, the Dosed remained ([2]; day 137.999) was 100 and the Dosed remained ([2]; day 138) was 100. It also gave a Dosed remained ([2]; day 138.999) of 100, a Dosed remained ([2]; day 139) of 100 and a Dosed remained ([2]; day 139.999) of 100. It also gave a Dosed remained ([2]; day 140) of 100, a Dosed remained ([2]; day 140.999) of 100 and a Dosed remained ([2]; day 141) of 100. It also gave a Dosed remained ([2]; day 141.999) of 100, a Dosed remained ([2]; day 142) of 100 and a Dosed remained ([2]; day 142.999) of 100. For the same compound, the Dosed remained ([2]; day 143) was 100, the Dosed remained ([2]; day 143.999) was 100 and the Dosed remained ([2]; day 144) was 100. For the same compound, the Dosed remained ([2]; day 144.999) was 100, the Dosed remained ([2]; day 145) was 100 and the Dosed remained ([2]; day 145.999) was 100. It also gave a Dosed remained ([2]; day 146) of 100, a Dosed remained ([2]; day 146.999) of 100 and a Dosed remained ([2]; day 147) of 100. It also gave a Dosed remained ([2]; day 147.999) of 100, a Dosed remained ([2]; day 148) of 100 and a Dosed remained ([2]; day 148.999) of 100. It also gave a Dosed remained ([2]; day 149) of 100, a Dosed remained ([2]; day 149.999) of 100 and a Dosed remained ([2]; day 150) of 100. The Dosed remained ([2]; day 150.999) was 100, the Dosed remained ([2]; day 151) was 100 and the Dosed remained ([2]; day 151.999) was 100. It also gave a Dosed remained ([2]; day 152) of 100, a Dosed remained ([2]; day 152.999) of 100 and a Dosed remained ([2]; day 153) of 100. For the same compound, the Dosed remained ([2]; day 153.999) was 100, the Dosed remained ([2]; day 154) was 100 and the Dosed remained ([2]; day 154.999) was 100. The Dosed remained ([2]; day 155) was 100, the Dosed remained ([2]; day 155.999) was 100 and the Dosed remained ([2]; day 156) was 100. For the same compound, the Dosed remained ([2]; day 156.999) was 100, the Dosed remained ([2]; day 157) was 70 and the Dosed remained ([2]; day 172.999) was 30. For the same compound, the Dosed remained ([2]; day 173) was 30, the Dosed remained ([2]; day 173.999) was 30 and the Dosed remained ([2]; day 174) was 30. For the same compound, the Dosed remained ([2]; day 174.999) was 30, the Dosed remained ([2]; day 175) was 30 and the Dosed remained ([2]; day 175.999) was 30. For the same compound, the Dosed remained ([2]; day 176) was 30, the Dosed remained ([2]; day 176.999) was 30 and the Dosed remained ([2]; day 177) was 30. It also gave a Dosed remained ([2]; day 177.999) of 30, a Dosed remained ([2]; day 178) of 20 and a Dosed remained ([2]; day 178.999) of 20. The Dosed remained ([2]; day 179) was 20, the Dosed remained ([2]; day 179.999) was 20 and the Dosed remained ([2]; day 180) was 20. The Dosed remained ([2]; day 180.999) was 20, the Dosed remained ([2]; day 181) was 20 and the Dosed remained ([2]; day 181.999) was 20. It also gave a Dosed remained ([2]; day 182) of 20, a Dosed remained ([2]; day 182.999) of 20 and a Dosed remained ([2]; day 183) of 20. It also gave a Dosed remained ([2]; day 183.999) of 20, a Dosed remained ([2]; day 184) of 20 and a Dosed remained ([2]; day 184.999) of 20. It also gave a Dosed remained ([2]; day 185) of 10, a Dosed remained ([2]; day 185.999) of 10 and a Dosed remained ([2]; day 186) of 10. For the same compound, the Dosed remained ([2]; day 186.999) was 10, the Dosed remained ([2]; day 187) was 10 and the Dosed remained ([2]; day 187.999) was 10. It also gave a Dosed remained ([2]; day 188) of 10, a Dosed remained ([2]; day 188.999) of 10 and a Dosed remained ([2]; day 189) of 10. It also gave a Dosed remained ([2]; day 189.999) of 10, a Dosed remained ([2]; day 190) of 0 and a Dosed remained ([2]; day 190.999) of 0. The survival ([2]; dosed, mean +/− STD, control 153 +/− 15 days) was 169 ± 11 days and the “SOD1 cross-linked during the assay” value [3] was 100%.
